Legend:
Assay type in all cases: cell-based, human
iPSCs (TC1133) [1] = assay: Long-term suspension culture of iPSCs in ambr15 bioreactor with automated passaging, ROCKi vs TZV (Example 1): aggregate size and expansion; conditions: for aggregate size: end of all passages except passage 0, ROCK inhibitor used during passaging
Procedure: (§1) • 13 ml with 2.5×10^5 cells/ml per vessel in passage 0; 5×10^5 cells/ml per vessel at all other passages. • Medium Change: 62% Exchange per day • Cells: TC1133, NINDS • Culture conditions: 37° C., pH 7.4, dO 23.8%, 300 rpm downstirr.
(§2) • 1. Y27632 treatment of iPSC aggregates at a final concentration of 10 μM two hours before dissociation. • 2. Two times washing with Versene: Stop of stirring for two minutes, removal of medium to 2 mL without disturbing sedimented aggregates, addition of Versene to 10 mL, starting the stirring (300 rpm, downwards) for 10 seconds. • 3. Removal of medium to 2 mL in the same way as described in the washing steps and addition of Versene to 5 mL. • 4. Stirring at 600 rpm for up to 15 min until dissociation is sufficient. […] Reduce stirring to 300 rpm. • 6. Cell count. • 7. Transfer a volume of cell suspension into a fresh ambr15 vessel resulting in a seeding concentration of 2-5×10^5 cells/mL, thereby diluting the cell dissociation reagent by addition of an excess volume (at least 5-fold) of iPS-Brew
(§3) • ambr15 cell culture 24 Disposable bioreactors, Low temp, no sparge, Part number: 001-2B81 • StemMACS iPS-Brew XF, Basal Medium, Order no.: 130-107-086 • StemMACS™ iPS-Brew XF 50× Supplement; Order no.: 130-107-087 • ROCKi Y27632; Stemolecule • Versene Solution, Cat No.: 15040-033 • Ambr15 bioreactor, Sartorius Stedim • Nucleocounter NC-200 Type 900-0201 • Cellavista Cell Imager • Flow Cytometer: BD LSR II Special Order System

[2] = tested on: iPSCs (TC1133); OCT4, TRA-1-60; assay: Expression of pluripotency-related genes at end of passages in long-term suspension culture (Example 1)
Procedure: as §1
as §2, with “iPS-Brew […]” for “iPS-Brew”

iPSCs (TC1133) [3] = assay: Effect of ROCKi pretreatment (4 h) on passaging of iPSCs in suspension (Example 4): aggregate size and expansion rate
Procedure: as §1
as §2, with “Y27632 treatment of iPSC aggregates at a final concentration of 10 μM two hours before dissociation. • 2.” left out
as §3
The aim of this example was to analyze the effects of ROCKi pretreatment on passaging of iPSCs in suspension.

[4] = tested on: iPSCs (TC1133); OCT4, NANOG, TRA-1-60; assay: Effect of ROCKi pretreatment (4 h) on expression of pluripotency-related markers in iPSCs (Example 4)
Procedure: as §1
• 1. Y27632 treatment of iPSC aggregates at a final concentration of 10 μM two hours before dissociation. • 2. Two times washing with Versene: Stop of stirring for two minutes, removal of medium to 2 mL without disturbing sedimented aggregates, addition of Versene to 10 mL, starting the stirring (300 rpm, downwards) for 10 seconds. • 3. Removal of medium to 2 mL in the same way as described in the washing steps and addition of Versene to 5 mL. • 4. Stirring at 600 rpm for up to 15 min until dissociation is sufficient. In progress controls have to be observed microscopically to assess the right degree of dissociation. • 5. Reduce stirring to 300 rpm. • 6. Cell count. • 7. Transfer a volume of cell suspension into a fresh ambr15 vessel resulting in a seeding concentration of 2-5×10^5 cells/mL, thereby diluting the cell dissociation reagent by addition of an excess volume (at least 5-fold) of iPS-Brew
as §3
The aim of this example was to analyze the effects of ROCKi pretreatment on passaging of iPSCs in suspension. Example 4 was performed like Examples 1-3 except that the ROCKi pretreatment was performed for 4 h.

[5] = day 3 after passaging, with ROCKi pretreatment
[6] = day 4 of passage 0 (day of passaging, cells to be pretreated)
[7] = day 3 after passaging, ROCKi pretreated
[8] = day 5 after passaging, ROCKi pretreated

| Compound | accumulated fold increase (iPSCs (TC1133) [1]; after 43 days, 8 passages, calculated from starting cell numbers and splitting ratios) | aggregate size (iPSCs (TC1133) [1]) | expression of pluripotency-related genes (OCT4, TRA-1-60) ([2]; end of every analyzed passage) | aggregate size (iPSCs (TC1133) [3]; [5]) | expansion rate (iPSCs (TC1133) [3]; [5]) | aggregate size (iPSCs (TC1133) [3]; [6]) | expansion rate (iPSCs (TC1133) [3]; [6]) | expansion rate (iPSCs (TC1133) [3]; day 5 after passaging, with ROCKi pretreatment) | NANOG expression [4, 7] | OCT4 expression [4, 7] | TRA-1-60 expression [4, 7] | NANOG expression [4, 6] | OCT4 expression [4, 6] | TRA-1-60 expression [4, 6] | NANOG expression [4, 8] | OCT4 expression [4, 8] | TRA-1-60 expression [4, 8] | expansion rates of iPSCs relative to ROCKi treated cells (iPSCs (TC1133) [1]; iPSCs passaged with TZV compared with ROCKi) | expression of pluripotency-related genes ([2]; end of passage 0, 2 and 3) |
| --- | --- | --- | --- | --- | --- | --- | --- | --- | --- | --- | --- | --- | --- | --- | --- | --- | --- | --- | --- |
| C[C@@H](N)[C@H]1CC[C@H](C(=O)Nc2ccncc2)CC1 [ROCKi, Y27632] | 9.6×10^6 | about 200 μm | high | 162.06±53 μm | 3.14 fold increase | 197.41±75 μm | 12.34 fold increase | 9.2 fold increase | 93.6% | 95.9% | 99.1% | 96.9% | 97.8% | 99.3% | 81.8% | 94.4% | 98.7% | – | – |
| O=C(NCc1ccccc1)c1csc(Nc2ccncn2)n1 [TZV, thiazovivin] | – | about 200 μm | – | – | – | – | – | – | – | – | – | – | – | – | – | – | – | comparable | high |

Reference: patent US20230059873A1, “EXPANSION OF STEM CELLS IN SUSPENSION IN A BIOREACTOR” (REPAIRON GMBH, priority 2019, published 2023)
